In ChEMBL document CHEMBL5390199, “Discovery of novel N-aryl-2-trifluoromethyl-quinazoline-4-amine derivatives as the inhibitors of tubulin polymerization in leukemia cells” (Eur J Med Chem, 2023):
Activity calls are given as the source filed them. No cut-off for these calls is given here.

How the values were obtained:
Tubulin (Homo sapiens) [1] = target: T1, Tubulin (Homo sapiens) (UniProt P68371+Q9H4B7+P0DPH7+P68366+Q13509+Q71U36+P04350+Q3ZCM7+P07437+P68363+Q9BQE3+Q6PEY2+Q13885+Q9BVA1+Q9BUF5); test: Inhibition of microtubule polymerization in human K562 cells at 0.5 uM measured for 60 mins; type: cell-based
HEL [2] = test: Induction of cell cycle arrest in human HEL cells assessed as increase in accumulation of cells at G2/M phase incubated for 12 hrs by flow cytometry; type: functional, cell-based
HEL [3] = test: Induction of cell cycle arrest in human HEL cells assessed as reduction in accumulation of cells at G0/G1 phase incubated for 12 hrs by flow cytometry; type: functional, cell-based
Tubulin (Homo sapiens) [4] = target: T1, Tubulin (Homo sapiens); test: Induction of microtubule depolymerization in human K562 cells at 500 nM incubated for 24 hrs by confocal microscopic analysis; type: cell-based
HEL [5] = test: Cytotoxicity against human HEL cells assessed as inhibition of cell growth incubated for 48 hrs by MTT assay; type: functional, cell-based
K562 [6] = test: Induction of cell cycle arrest in human K562 cells assessed as increase in accumulation of cells at G2/M phase incubated for 12 hrs by flow cytometry; type: functional, cell-based
HEL [7] = test: Induction of cell cycle arrest in human HEL cells assessed as reduction in accumulation of cells at S phase incubated for 12 hrs by flow cytometry; type: functional, cell-based
K562 [8] = test: Induction of apoptosis in human K562 cells at 0.5 uM incubated for 48 hrs by annexin V-FITC/propidium iodide staining based flow cytometry relative to control; type: functional
K562 [9] = test: Cytotoxicity against human K562 cells assessed as inhibition of cell growth incubated for 48 hrs by MTT assay; type: functional, cell-based; conditions: K562, 48 h
HeLa = test: Cytotoxicity against human HeLa cells assessed as inhibition of cell growth incubated for 48 hrs by MTT assay; type: functional, cell-based; conditions: Homo sapiens, HeLa, 48 h; read-out: IC50
[10] = Selectivity index, ratio of IC50 for cytotoxicity against human L02 cells to IC50 for cytotoxicity against human HEL cells
K562 [11] = test: Induction of cell cycle arrest in human K562 cells assessed as reduction in accumulation of cells at S phase incubated for 12 hrs by flow cytometry; type: functional, cell-based
K562 [12] = test: Induction of morphological changes in human K562 cells by fluorescence microscopic analysis; type: functional, cell-based
[13] = Selectivity index, ratio of IC50 for cytotoxicity against human L02 cells to IC50 for cytotoxicity against human K562 cells; type: toxicity, cell-based; conditions: L02 cells and K562 cells, read-out: Ratio IC50
K562 [14] = test: Induction of cell cycle arrest in human K562 cells assessed as reduction in accumulation of cells at G0/G1 phase incubated for 12 hrs by flow cytometry; type: functional, cell-based
[15] = Cytotoxicity against human L02 cells assessed as inhibition of cell growth incubated for 48 hrs by MTT assay; type: toxicity, cell-based
HEL [16] = test: Induction of morphological changes in human HEL cells by fluorescence microscopic analysis; type: functional, cell-based
[17] = target: Tubulin beta (Homo sapiens) (UniProt P68371+Q9H4B7+Q13509+P04350+Q3ZCM7+P07437+Q13885+Q9BVA1+Q9BUF5+A6NNZ2); test: Binding affinity to beta-tubulin colchicine binding site in human K562 cells assessed as inhibition of EBI-beta-tubulin adduct band formation preincubated for 2 hrs followed by EBI addition and measured after 1.5 hrs by EBI competition based Western blot analysis; type: cell-based; conditions: dose 0.2-25 µM, time 3.5 hrs
HUVEC = test: Antiangiogenic activity against human HUVEC cells assessed as inhibition of cell migration at 0.5 uM measured after 24 hrs by scratch wound healing assay; type: functional, cell-based
LNCaP = test: Cytotoxicity against human LNCaP cells assessed as inhibition of cell growth incubated for 48 hrs by MTT assay; type: functional, cell-based
HEL [18] = test: Induction of apoptosis in human HEL cells at 0.5 uM incubated for 48 hrs by annexin V-FITC/propidium iodide staining based flow cytometry relative to control; type: functional
Tubulin (Homo sapiens) [19] = target: T1, Tubulin (Homo sapiens); test: Induction of microtubule depolymerization in human K562 cells assessed as aggregation of microtubule fibers at 100 nM incubated for 24 hrs by confocal microscopic analysis; type: cell-based

Structure (SMILES)	Activity (HEL [2])	Activity (HEL [3])	IC50 (HEL [5]) [nM]	Activity (HEL [7])	IC50 (K562 [9]) [nM]	IC50 (HeLa) [nM]	Ratio IC50 [10]	Activity (K562 [12])	Activity (HEL [16])	Activity (HUVEC)	IC50 (LNCaP) [nM]	Activity (HEL [18]) [%]	also measured
COc1ccc(N(C)c2nc(C(F)(F)F)nc3ccc(F)cc23)cc1	Active	Active	99	Active	265	110	19.7	Active	Active	Active	377	32.3	Activity (Tubulin (Homo sapiens) [1]): Active; Activity (Tubulin (Homo sapiens) [4]): Active; Activity (K562 [6]): Active; Activity (K562 [8]): 19.9%; Activity (K562 [11]): Active; selectivity ratio [13]: 7.36; Activity (K562 [14]): Active; IC50 at 48 h [15]: 1950 nM; Activity [17]: Dose-Dependent Effect
CCNc1cc(N(C)c2nc(C(F)(F)F)nc3ccc(F)cc23)ccc1OC			6960		2420	201					2560		
COc1ccc(N(C)c2nc(C(F)(F)F)nc3ccc(C)cc23)cc1	Active	Active	34	Active	3280	141	3.38	Active	Active	Active	237	29.2	
COc1ccc(N(C)c2nc(C(F)(F)F)nc3ccc(F)cc23)cc1NC(C)=O			1120		1590	46					810		
COc1cc2nc(C(F)(F)F)nc(N(C)c3ccc4c(ccn4C)c3)c2cc1O			468		2260	1120					481		
CCN(CC)c1cc(N(C)c2nc(C(F)(F)F)nc3ccc(F)cc23)ccc1OC			11700		21600	8390					13300		
COc1ccc(N(C)c2nc(C(F)(F)F)nc3ccc(F)cc23)cc1NC(=O)CCl			595		1390	37					256		
COc1ccc(N(C)c2nc(C(F)(F)F)nc3cc(OC)c(OCCCN4CCCC4)cc23)cc1			1570		2410	445					172		
CC(=O)O[C@H]1C(=O)[C@@]2(C)[C@H]([C@H](OC(=O)c3ccccc3)[C@]3(O)C[C@H](OC(=O)[C@H](O)[C@@H](NC(=O)c4ccccc4)c4ccccc4)C(C)=C1C3(C)C)[C@]1(OC(C)=O)CO[C@@H]1C[C@@H]2O [PACLITAXEL]			200		874	6					58		Activity (Tubulin (Homo sapiens) [19]): Active
COc1ccc(N(C)c2nc(C(F)(F)F)nc3ccc(Cl)cc23)cc1	Active	Active	294	Active	294	332	8.28	Active	Active	Active	143	31	Activity (K562 [6]): Active; Activity (K562 [8]): 19.7%; Activity (K562 [11]): Active; selectivity ratio [13]: 1.1; Activity (K562 [14]): Active; IC50 at 48 h [15]: 323 nM
